Results from patent publication US12168664B2, “Triazolopyrimidines, their preparation and use” (THE TRUSTEES OF COLUMBIA UNIVERSITY IN THE CITY OF NEW YORK, priority 2018, dated 2024).
pIC50: −log10 of the molar value. Values joined by “and” are separate entries in the source; they are usually repeats but may differ in a detail not shown here. Equal values may be shown once.

What was measured:
[1] = molecular target: RBP4-TTR interaction (Homo sapiens (Human), UniProt P02753); test: HTRF (TR-FRET) assay for antagonists of retinol-induced RBP4-TTR interaction; assay type: biochemical; conditions: in the presence of 1 μM retinol
Text: TR-FRET Assay for Retinol-Induced RBP4-TTR Interaction
Binding of a desired RBP4 antagonist displaces retinol and induces hindrance for RBP4-TTR interaction resulting in the decreased FRET signal (FIG. 7). Bacterially expressed MBP-RBP4 and untagged TTR were used in this assay. For the use in the TR-FRET assay, the maltose binding protein (MBP)-tagged human RBP4 fragment (amino acids 19-201) was expressed in the Gold(DE3)pLysS E. coli strain (Stratagene) using the pMAL-c4x vector. Following cell lysis, recombinant RBP4 was purified from the soluble fraction using the ACTA FPLC system (GE Healthcare) equipped with the 5-ml the MBP Trap HP column. Human untagged TTR was purchased from Calbiochem. Untagged TTR was labeled directly with Eu^3+ Cryptate-NHS using the HTRF Cryptate Labeling kit from CisBio following the manufacturer's recommendations. HTRF assay was performed in white low volume 384 well plates (Greiner-Bio) in a final assay volume of 16 μl per well. […] Titration of test compounds in this assay was conducted in the presence of 1 μM retinol. […] TR-FRET signal was measured in the SpectraMax M5e Multimode Plate Reader (Molecular Device). […] The TR-FRET signal was expressed as the ratio of fluorescence intensity: Flu665/Flu620×10,000.
The compounds listed below were tested in two in vitro assays, RBP4 binding (SPA) and retinol-dependent RBP4-TTR interaction (HTRF) (Table 1).

[2] = molecular target: PPARγ (Homo sapiens (Human), UniProt P37231); test: PPARγ agonist assay (HTRF, PPARγ-NCOR interaction); assay type: biochemical; conditions: read-out: PPAR γ assay (HTRF) for agonists of this nuclear receptor - IC50
Text: Significant safety issues are associated with the clinical use of PPARγ agonists (increased risk of death, myocardial infarction, stroke, congestive heart failure, hepatotoxicity, peripheral edema, weight gain and carcinogenicity^1-4). We wanted to characterize the compounds we identified in a pilot screen as potential PPARγ agonists. The PPARγ assay is based on agonist-sensitive interaction of the GST-tagged ligand-binding domain (LRD) of the nuclear receptor PPARγ with the biotinylated corepressor NCOR peptide (FIG. 8).
Assay reactions are performed in a final volume of 16 ul.
In well of the 384-well assay plate, mix 6 ul of PPARγ solution, 4 ul of NCOR2 solution and 4 μl of Rosi solution. Test compounds diluted from DMSO stocks to 4× assay concentration in 1×HTRF, 100 mM KF buffer may be dispensed to well instead of Rosi. Negative control wells contained DMSO solvent alone; positive control well contained […]. […] Two μl of detection mix was added per well. […] The plate was incubated for 16 hrs at 4° C.
HTRF signal was measured in the SpectraMax M5e Multimode Plate Reader (Molecular Device). Fluorescence was excited at 337 nm. […] The signal was expressed as the ratio of fluorescence intensity: Flu668/Flu620×10,000. […]

[3] = Metabolic stability in liver microsomes (HLM); assay type: in vitro ADME, human
Method: The compounds listed below were tested in various metabolic stability and CYP inhibition assays.

Sequence of PPARγ (P37231 204-505): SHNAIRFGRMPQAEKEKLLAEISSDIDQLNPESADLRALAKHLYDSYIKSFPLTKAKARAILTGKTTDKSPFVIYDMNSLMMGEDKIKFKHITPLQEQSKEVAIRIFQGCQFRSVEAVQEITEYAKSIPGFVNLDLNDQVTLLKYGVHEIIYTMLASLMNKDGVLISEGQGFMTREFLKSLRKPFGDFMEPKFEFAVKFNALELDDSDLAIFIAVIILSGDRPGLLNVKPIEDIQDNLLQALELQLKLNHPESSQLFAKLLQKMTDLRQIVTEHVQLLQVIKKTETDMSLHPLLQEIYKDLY

Question: With `O=C(c1nc2ncccn2n1)N1C[C@H]2C[C@@H](c3ccccc3C(F)(F)F)C[C@H]2C1` [Compound 7a] as the compound, how does the pIC50 [1] read?
Answer: Its pIC50 is 6.68 and 6.71 and 6.62.

Question: And the pIC50 [2]?
Answer: Its pIC50 is less than 4.00.

Question: What about the “Metabolic stability in liver microsomes: % Remaining at 30 min, HLM” value [3] of the same compound?
Answer: Its value is 85%.
